This data set can be described thus: solvent given as SMILES.
Setting [1] is: in CCCCCCCC(=O)OCC(COC(=O)CCCCCCC)OC(=O)CCCCCCC.
Setting [2] is: in CCCCCCCCC=CCCCCCCCC(=O)OCC(COC(=O)CCCCCCCC=CCCCCCCCC)OC(=O)CCCCCCCC=CCCCCCCCC

Take `CC(F)(F)Cl`: the “solvation free energy, 298 K” value is -1.84 kcal/mol under setting [1]; -1.74 kcal/mol (in CCCCCCCCC); -1.62 kcal/mol (in CCCCCCCCO); -2.13 kcal/mol (in CN1CCCC1=O); -2.09 kcal/mol (in CN(C)C=O); 0.61 kcal/mol (in O).
Take `CC(C)C1CCC2(C)C3CC4C(C13)C42C` (stereo not given): for the setting “in O”, the “solvation free energy, 298 K” value is 1.13 kcal/mol.
Regarding `O=C1OC(C(O)CO)C(O)=C1O` (stereo not given), the “solvation free energy, 298 K” value runs as follows: (in CCCO) -17.2 kcal/mol; (in CCO) -17.7 kcal/mol.
For the compound `FC(F)=C(F)C(F)(F)F`, the “solvation free energy, 298 K” value was -0.41 kcal/mol under setting [1], -0.32 kcal/mol (in CCCCCCCCO) and 3.88 kcal/mol (in COCCO).
`CCS`: the “solvation free energy, 298 K” value was -3.13 kcal/mol (in CC(C)CC(C)(C)C), -3 kcal/mol (in CO), -1.07 kcal/mol (in O) and -2.7 kcal/mol (in OCCOCCOCCOCCO).
Regarding `Clc1ccc(-c2ccc(Cl)c(Cl)c2Cl)cc1Cl`, the “solvation free energy, 298 K” value (in CCCCCCCCO) is -12.9 kcal/mol.
As to `C=CCC=CC`, the “solvation free energy, 298 K” value was -3.46 kcal/mol (in C=CCCCCCCCCCCCCCC) and 1.09 kcal/mol (in O).
On to `CCCCCNCc1ccc(C)cc1`, for which, for the setting “in O”, the “solvation free energy, 298 K” value is -5.21 kcal/mol.
For `CCCCBr`, the “solvation free energy, 298 K” value (in C=CCCCCCCCCCCCCCC) is -4.19 kcal/mol; the “solvation free energy, 298 K” value (in CC(C)(C)O) was -4.09 kcal/mol; the “solvation free energy, 298 K” value (in CC(C)CO) was -4.15 kcal/mol; the “solvation free energy, 298 K” value (in CCC(C)O) is -4.19 kcal/mol; the “solvation free energy, 298 K” value (in CCCCCCCCCCO) is -4.19 kcal/mol; the “solvation free energy, 298 K” value (in CCCCCCCCO) is -4.22 kcal/mol. In addition, the “solvation free energy, 298 K” value (in CCO) was -4.22 kcal/mol; the “solvation free energy, 298 K” value (in ClC(Cl)(Cl)Cl) is -4.75 kcal/mol; the “solvation free energy, 298 K” value (in O) is -0.34 kcal/mol.
For `CC(Cl)Cl`, the “solvation free energy, 298 K” value (in CCCCCCCCO) is -3.29 kcal/mol; the “solvation free energy, 298 K” value (in ClC(Cl)(Cl)Cl) is -3.78 kcal/mol; the “solvation free energy, 298 K” value (in ClC(Cl)Cl) was -4.11 kcal/mol; the “solvation free energy, 298 K” value (in ClCCCl) is -4.02 kcal/mol; the “solvation free energy, 298 K” value (in O) is -0.84 kcal/mol.
In the case of `O=C(O)c1ccc2ccccc2c1`, the “solvation free energy, 298 K” value is, setting by setting: (in C=CCCCCCCC=C) -9.58 kcal/mol; (in C=CCCCCCCCCCCCCCC) -9.37 kcal/mol; (in O) -8.54 kcal/mol.
In the case of `CCc1cccc(O)c1`, for the setting “in O”, the “solvation free energy, 298 K” value is -6.25 kcal/mol.
With `NCCO`, the “solvation free energy, 298 K” value (in CCCCCCC) was -2.5 kcal/mol.
For the compound `FC(Cl)Cl`, the “solvation free energy, 298 K” value by setting is: (in CN1CCCC1=O) -1.34 kcal/mol; (in CN(C)C=O) -1.35 kcal/mol; (in O) 1.54 kcal/mol.
With `Cc1ccc(C(=O)O)cc1C`, the “solvation free energy, 298 K” value (in CN(C)C=O) was -11.6 kcal/mol and the “solvation free energy, 298 K” value (in O) was -6.55 kcal/mol.
Turning to `Oc1ccccc1Br`, the “solvation free energy, 298 K” value (in CC(C)CC(C)(C)C) was -6.25 kcal/mol; the “solvation free energy, 298 K” value (in CCCCCC) is -6.52 kcal/mol; the “solvation free energy, 298 K” value (in CCCCCCC) is -6.49 kcal/mol; the “solvation free energy, 298 K” value (in CCCCCCCC) is -6.47 kcal/mol; the “solvation free energy, 298 K” value (in CCCCCCCCCC) is -6.44 kcal/mol; the “solvation free energy, 298 K” value (in Cc1ccc(C)cc1) was -7.18 kcal/mol. Further, the “solvation free energy, 298 K” value (in Cc1cccc(C)c1) was -7.27 kcal/mol; the “solvation free energy, 298 K” value (in Cc1ccccc1C) is -7.22 kcal/mol; the “solvation free energy, 298 K” value (in O) is -5.06 kcal/mol.
On to `CCCNCCC`, for which the “solvation free energy, 298 K” value (in O) was -3.65 kcal/mol.
With `Oc1c(Cl)c(Cl)c(Cl)c(Cl)c1Cl`, the “solvation free energy, 298 K” value is, setting by setting: under setting [2], -10.3 kcal/mol; (in O) -4.99 kcal/mol.
As to `CCCl`, the “solvation free energy, 298 K” value is, setting by setting: (in CC(=O)N(C)C) -2.93 kcal/mol; (in CC(C)(C)O) -2.44 kcal/mol; (in CC(C)CCO) -2.43 kcal/mol; (in CC(C)CO) -2.43 kcal/mol; (in CC(C)O) -2.47 kcal/mol; (in CCC(C)(C)O) -2.5 kcal/mol. The “solvation free energy, 298 K” value runs as follows: (in CCC(C)CO) -2.4 kcal/mol; (in CCC(C)O) -2.41 kcal/mol; (in CCC(O)CC) -2.41 kcal/mol; (in CCCC(C)O) -2.36 kcal/mol; under setting [1], -2.56 kcal/mol; (in CCCCCCCCC) -2.34 kcal/mol. The “solvation free energy, 298 K” value was -2.32 kcal/mol (in CCCCCCCCO); -2.47 kcal/mol (in CCCCCO); -2.5 kcal/mol (in CCCCO); -2.54 kcal/mol (in CCCO); -2.74 kcal/mol (in CN(C)C=O); -2.63 kcal/mol (in CO). Moreover, the “solvation free energy, 298 K” value by setting is: (in Cc1ccc(C)cc1) -2.83 kcal/mol; (in Cc1cccc(C)c1) -2.87 kcal/mol; (in Cc1ccccc1C) -2.86 kcal/mol; (in Clc1ccccc1) -2.96 kcal/mol; (in N#Cc1ccccc1) -2.88 kcal/mol; (in O) -0.63 kcal/mol.
`Nc1ccccc1`: the “solvation free energy, 298 K” value runs as follows: (in CC(C)=O) -7.84 kcal/mol; (in CC(C)CC(C)(C)C) -5.2 kcal/mol; (in CCCCCC) -5.43 kcal/mol; (in CCCCCCC) -5.38 kcal/mol; (in CCCCCCCC) -4.84 kcal/mol; (in CCCCCCCCCCCCCCCC) -5.36 kcal/mol. Moreover, the “solvation free energy, 298 K” value is -6.67 kcal/mol (in CCCCCl), -7.49 kcal/mol (in CCOC(C)=O) and -5.77 kcal/mol (in O).
As for `CCCCP(=O)(CCCC)CCCC`, the “solvation free energy, 298 K” value (in O) was -11.1 kcal/mol.
Take `Nc1ccc(O)cc1`: under “in C1COCCO1”, the “solvation free energy, 298 K” value was -12.3 kcal/mol.
For the compound `Brc1cccc(Br)c1`, under “in O”, the “solvation free energy, 298 K” value was -1.99 kcal/mol.
`CCn1ccc(NS(=O)(=O)c2ccc(N)cc2)nc1=O`: the “solvation free energy, 298 K” value (in O) is -20.6 kcal/mol.
Same read-out and setting: the value for `Nc1ccc(S(N)(=O)=O)cc1` was -14.8 kcal/mol.
`CCCCCCCCCCO`: the “solvation free energy, 298 K” value runs as follows: (in CC(C)O) -9.77 kcal/mol; (in CCCCCC) -7.69 kcal/mol; (in CCCCCCCC) -7.87 kcal/mol; (in CCCCCCCCCO) -9.64 kcal/mol; (in CCCO) -9.73 kcal/mol; (in O) -3.69 kcal/mol.
Regarding `Cc1cccc(C)c1N`, for the setting “in O”, the “solvation free energy, 298 K” value was -5.21 kcal/mol.
Take `O=CO`: the “solvation free energy, 298 K” value runs as follows: (in C=CCCCCCCC=C) -2.89 kcal/mol; (in C=CCCCCCCCCCCCCCC) -2.47 kcal/mol.
As for `CC1=CCC2(C)CCCC(C)(C)C23CC13` (stereo not given), where the note is “in O”, the “solvation free energy, 298 K” value worked out at 0.46 kcal/mol.
With `c1ccc2c(c1)cc1ccc3cccc4ccc2c1c34`, the “solvation free energy, 298 K” value under setting [2] was -16.7 kcal/mol.
Consider `ClCCCCCl`, for which the “solvation free energy, 298 K” value is, setting by setting: (in CC(C)=O) -6.56 kcal/mol; (in O) -2.32 kcal/mol.
For `CC1CCCCC1O` (stereo not given), the “solvation free energy, 298 K” value (in O) is -4.79 kcal/mol.
On to `Cc1ccc2c(C)ccc(C(C)C)c2c1`, for which the “solvation free energy, 298 K” value (in O) was -2.5 kcal/mol.
The same measure, in the same setting: the value for `Cn1ccnc1` was -8.41 kcal/mol; that for `CCCCCC(=O)OCC` was -2.24 kcal/mol; that for `O=[N+]([O-])c1ccc(Cl)cc1` was -5.05 kcal/mol.
As for `COC(=O)c1ccccc1O`, the “solvation free energy, 298 K” value (in Cc1ccc(C)cc1) was -7.64 kcal/mol.
As to `Nc1ccc2ccccc2c1`, the “solvation free energy, 298 K” value runs as follows: (in CCCCCC) -8.89 kcal/mol; (in CCCCCCCC) -8.96 kcal/mol; (in O) -7.47 kcal/mol.
In the case of `Clc1ccc(-c2ccc(Cl)c(Cl)c2Cl)c(Cl)c1Cl`, where the note is “in O”, the “solvation free energy, 298 K” value was -3.6 kcal/mol.
As for `CC(C)(C)CCO`, the “solvation free energy, 298 K” value is -4.85 kcal/mol (in CCCCCCCC) and -4.72 kcal/mol (in CCCCCCCCCC).
Take `CCNc1nc(Cl)nc(NC(C)(C)C#N)n1`: the “solvation free energy, 298 K” value (in O) is -13.2 kcal/mol.
In the case of `CN1CCN(C)CC1`, the “solvation free energy, 298 K” value (in O) is -7.58 kcal/mol.
As to `O=C(O)Cc1ccc(O)cc1`, the “solvation free energy, 298 K” value (in CCOC(C)=O) was -13.6 kcal/mol and the “solvation free energy, 298 K” value (in O) was -13 kcal/mol.
For `CCCCCC(=O)OC`, the “solvation free energy, 298 K” value was -5.65 kcal/mol (in CCCCCC); -5.63 kcal/mol (in CCCCCCC); -5.55 kcal/mol (in CCCCCCCC); -5.48 kcal/mol (in CCCCCCCCCC); -5.84 kcal/mol (in CO); -2.5 kcal/mol (in O).
Regarding `CCSC`, the “solvation free energy, 298 K” value (in O) is -1.5 kcal/mol.

The values are drawn from the CombiSolv-Exp solvation set (Vermeire and Green 2021).
